# Literature values in US20080075681A1, “Method and composition for permanently shaping hair” (priority 2006, published 2008).
# Conditions: compared to N-methylmercaptoacetamide and N-hydroxyethylmercaptoacetamide; EP 0969791 B1
compound,measurement,value
O=C(CS)NCCCO [N-(3′-hydroxypropyl)-2-mercapto-acetamide],sensitization rates,substantially lower
